Patent US20110195924A1, “Methods of Inhibiting the Interaction Between S100P and the Receptor for Advanced Glycation End-Products” (priority 2008, published 2011)

What was measured:
[1] = test system: MPanc-96 tumors; test: MPanc-96 orthotopic tumor growth and metastasis in scid mice; format: in vivo; details: MPanc-96 model; for lung metastasis, mean: control 5.9×10^7; for liver metastasis, mean: control 9.4×10^8; for tumor burden, mean: gemcitabine 125 mg/kg bi-weekly i.p., cromolyn 5 mg/kg daily i.p., end of six weeks, control 1.1×10^10
Experimental: FIGS. 5A-5F show the effect of cromolyn on MPanc-96 tumor growth and metastasis in vivo. MPanc-96 cells stably expressing the firefly luciferase gene were injected orthotopically into 4-week-old male CB 17 scid mice. […] Mice were divided into four groups of five mice each with an equivalent mean tumor size between groups. […] One group was treated with water (control), one group received gemcitabine bi-weekly (125 mg per kg body weight bi-weekly by intraperitoneal injection), one group was administered cromolyn daily (5 mg per kg body weight daily by intraperitoneal injection), and the final group was given the combination of cromolyn and gemcitabine. All groups were treated for six weeks. Bioluminescent imaging was done weekly to assess tumor growth. […] Means and 95% confidence intervals from two independent experiments are shown (n=20). Two-tailed two-sample (unpaired) Student's t-tests were used to determine P values. The anti-tumorigenic capability of the drug cromolyn was assessed in 4-week-old male CB 17 scid mice (n=20) carrying orthopic tumors of BxPC-3, MPanc96, and Panc-1 cells stably expressing a Lenti-luc reporter. All mouse experiments were reviewed and approved by the Institutional Animal Care and Use Committee of UT MD Anderson Cancer Center. All mice were maintained in a sterile environment. Cages, bedding, food, and water were all autoclaved. All mice were maintained on a daily 12-hour light/12-hour dark cycle, according to the institutional animal welfare guidelines. BxPC-3, MPanc96, and Pane-1 cells carrying the Lenti-luc reporter gene were grown to 80% confluence, harvested by incubation with trypsin-EDTA, washed twice in PBS, and resuspended to a final concentration of 4.0×10^6 cells/mL. Each mouse (n=20 mice per cell line) was injected (into the pancreas) with cell suspensions (50 μL). Bioluminescent imaging to determine tumor volume was performed 1 week after injection because the tumors became established within this amount of time. This initial tumor volume was used to divide the mice into four groups of five mice each, such that the mean tumor size was equal between groups (FIGS. 4A, 5A, and 6A). To allow enough time to observe differences among treatment groups, the mice were followed for the next 5 weeks. One group of mice was then treated biweekly with a sub-maximal concentration of gemcitabine (125 mg per kg body weight by i.p. injection). A second group was treated with a daily injection of cromolyn (5 mg per kg body weight by i.p. injection). A third group was treated with both bi-weekly gemcitabine and daily cromolyn. The control group was treated daily with vehicle. Treatments were continued for 5 weeks, and the effects on the tumor burden and metastasis were analyzed by weekly bioluminescence imaging (FIGS. 4B, 5B, and 6B). At the end of the experiment the mice were anesthetized with 1.5% isofluorane/air mixture and killed by cervical dislocation. Bioluminescence imaging was conducted using a cryogenically cooled IVIS 100 imaging system coupled to a data acquisition computer running Living Image software (Xenogen Corp., Alameda, Calif.). Before imaging, mice were placed in an acrylic chamber, anesthetized with 1.5% isofluorane/air mixture, and injected i.p. with 15 mg/mL of luciferin potassium salt in PBS at a dose of 150 mg per kg body weight. A digital grey scale image of each mouse was acquired, followed by acquisition and overlay of a pseudocolor image representing the spatial distribution of detected photons emerging from active luciferase within the mouse. Tumor volume was quantified as the sum of all detected photons within the region of the tumor per second. At the end of experiment, the mice were killed, and tumors were surgically removed and weighed. After the primary tumors were removed, cancer cell dissemination and metastasis was visualized using IVIS imaging, and metastatic colonies were counted. […]

[2] = test system: BxPC-3 tumors; test: BxPC-3 orthotopic tumor growth and metastasis in scid mice; format: in vivo; details: BxPC-3 model; for lung metastasis, mean: control 5.5×10^8; for tumor burden, difference versus control / tumor burden, mean: end of six weeks; for tumor burden, mean: gemcitabine 125 mg/kg bi-weekly i.p., cromolyn 5 mg/kg daily i.p., control 1.6×10^9
Experimental: FIGS. 4A-4F show the effect of cromolyn on BxPC-3 tumor growth and metastasis in vivo. BxPC-3 cells stably expressing the firefly luciferase gene were injected orthotopically into 4 week old male CB 17 scid mice. […] Mice were divided into four groups of five mice each with an equivalent mean tumor size between groups. […] One group was treated with water (control), one group received gemcitabine bi-weekly (125 mg kg body weight bi-weekly by intraperitoneal injection), one group was administered cromolyn daily (5 mg per kg body weight daily by intraperitoneal injection), and the final group was given the combination of daily cromolyn and bi-weekly gemcitabine. All groups were treated for six weeks. Bioluminescent imaging was done weekly to assess tumor growth. […] Means and 95% confidence intervals are shown. (n=20). Two-tailed two-sample (unpaired) Student's t-tests were used to determine P values. The anti-tumorigenic capability of the drug cromolyn was assessed in 4-week-old male CB 17 scid mice (n=20) carrying orthopic tumors of BxPC-3, MPanc96, and Panc-1 cells stably expressing a Lenti-luc reporter. All mouse experiments were reviewed and approved by the Institutional Animal Care and Use Committee of UT MD Anderson Cancer Center. All mice were maintained in a sterile environment. Cages, bedding, food, and water were all autoclaved. All mice were maintained on a daily 12-hour light/12-hour dark cycle, according to the institutional animal welfare guidelines. BxPC-3, MPanc96, and Pane-1 cells carrying the Lenti-luc reporter gene were grown to 80% confluence, harvested by incubation with trypsin-EDTA, washed twice in PBS, and resuspended to a final concentration of 4.0×10^6 cells/mL. Each mouse (n=20 mice per cell line) was injected (into the pancreas) with cell suspensions (50 μL). Bioluminescent imaging to determine tumor volume was performed 1 week after injection because the tumors became established within this amount of time. This initial tumor volume was used to divide the mice into four groups of five mice each, such that the mean tumor size was equal between groups (FIGS. 4A, 5A, and 6A). To allow enough time to observe differences among treatment groups, the mice were followed for the next 5 weeks. One group of mice was then treated biweekly with a sub-maximal concentration of gemcitabine (125 mg per kg body weight by i.p. injection). A second group was treated with a daily injection of cromolyn (5 mg per kg body weight by i.p. injection). A third group was treated with both bi-weekly gemcitabine and daily cromolyn. The control group was treated daily with vehicle. Treatments were continued for 5 weeks, and the effects on the tumor burden and metastasis were analyzed by weekly bioluminescence imaging (FIGS. 4B, 5B, and 6B). At the end of the experiment the mice were anesthetized with 1.5% isofluorane/air mixture and killed by cervical dislocation. Bioluminescence imaging was conducted using a cryogenically cooled IVIS 100 imaging system coupled to a data acquisition computer running Living Image software (Xenogen Corp., Alameda, Calif.). Before imaging, mice were placed in an acrylic chamber, anesthetized with 1.5% isofluorane/air mixture, and injected i.p. with 15 mg/mL of luciferin potassium salt in PBS at a dose of 150 mg per kg body weight. A digital grey scale image of each mouse was acquired, followed by acquisition and overlay of a pseudocolor image representing the spatial distribution of detected photons emerging from active luciferase within the mouse. Tumor volume was quantified as the sum of all detected photons within the region of the tumor per second. At the end of experiment, the mice were killed, and tumors were surgically removed and weighed. After the primary tumors were removed, cancer cell dissemination and metastasis was visualized using IVIS imaging, and metastatic colonies were counted. Subsequently, tissues were fixed with formaldehyde, and histology was used to verify the accuracy of the bioluminescence data. […]

Row | Compound | liver metastasis, difference versus control [1] | lung metastasis, difference versus control [1] | tumor burden, difference versus control [1] | lung metastasis, mean [1] | liver metastasis, mean [1] | tumor burden, mean [1] | effect on body weight (in words) ([1]; up to 6 weeks) | liver metastasis (in words) [2] | lung metastasis, difference versus control [2] | lung metastasis, mean [2] | tumor burden, difference versus control [2] | tumor burden, mean [2] | effect on body weight (in words) ([2]; up to 6 weeks) | body weight, difference versus control [2] | body weight at the end of the experiment, mean ([2]; control 31.1) | metastasis in lung or liver compared with control mice ([2]; treatment alone)
1 | O=C(O)c1cc(=O)c2c(OCC(O)COc3cccc4oc(C(=O)O)cc(=O)c34)cccc2o1 [cromolyn, disodium 1,3-bis[(2′-carboxylatochromon-5′-yl)oxy]-2-hydroxypropane] | 7.2×10^8 photons/sec | 5.6×10^7 photons/sec | 6.2×10^9 photons/sec | 3.2×10^6 photons/sec | 2.2×10^8 photons/sec | 4.8×10^9 photons/sec | no effect | but not liver metastasis | 3.9×10^8 photons/sec | 1.6×10^8 photons/sec | 1.2×10^9 photons/sec | 4.4×10^8 photons/sec | no effect | – | – | –
2 | Nc1ccn([C@@H]2O[C@H](CO)[C@@H](O)C2(F)F)c(=O)n1 [gemcitabine] | 8.1×10^8 photons/sec | 5.4×10^7 photons/sec | 6.9×10^9 photons/sec | 5.0×10^6 photons/sec | 1.2×10^8 photons/sec | 4.1×10^9 photons/sec | – | – | – | 3.9×10^8 photons/sec | 6.8×10^8 photons/sec | 9.2×10^8 photons/sec | – | 3.9 g | 27.2 g | did not reduce
